Measured values reported in patent publication US5036050A, “Compositions containing thymopentin for topical treatment of skin disorders” (Immunobiology Research Institute, Inc., priority 1989, dated 1991).
Where no end group is shown, it is not given here.

Tested on: neuromuscular transmission
Assay: Neuromuscular assay (electromyography after topical application)
Assay type: in vivo, guinea pigs
Conditions: 18 hours later
Method: To determine the effect of different formulations and dosages of compositions according to the invention, varying amounts of topical TP5 compositions prepared as described in Example 1B, were applied to the skin of guinea pigs.
A 11/2"×11/2" square section was shaved on each animal's back 24 hours before the application of the thymopentin composition. Four concentrations of thymopentin cream were used (10%, 5%, 2.5% and 1.25%) using Unibase® as a diluent. A total of 100 mg of cream containing either 10 mg, 5 mg, 2.5 mg or 1.25 mg thymopentin was rubbed with a spatula on the shaved skin of each animal. Control animals were treated similarly with the Unibase® carrier only.
Eighteen hours later the neuromuscular transmission of each group of five animals for each concentration was assessed by electromyography as described in Lancet, 12:256-259 (1975).

Question: How did the “neuromuscular change compared to control animals” value (5% thymopentin cream in Unibase, 100 mg cream (5 mg thymopentin) on shaved skin) turn out when RKDVY [thymopentin] was run?
Answer: Significant neuromuscular change

Question: What about the “neuromuscular change compared to control animals” value (10% thymopentin cream in Unibase, 100 mg cream (10 mg thymopentin) on shaved skin) of the same substance?
Answer: Significant neuromuscular change
